EC50 and IC50 data for 26 molecules are collected here from patent publication US12410160B2 (Gilead Sciences, Inc., priority 2021, dated 2025).

Assay [1] has as its target KHK-C expressed in NRK-52E cells (Homo sapiens (Human), UniProt P50053). The assay is described as follows: KHK-C Cell-based Assay (EC50), NRK CTG, fructose-mediated ATP-depletion.
The target of another assay is human KHK-C (Homo sapiens (Human), UniProt P50053). The assay is described as follows: KHK Biochemical Assay (IC50), ADP-Glo, KHK-C. The conditions noted are these: average of at least two separate assays. Put shortly:
(§1)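 ADP-Glo luminescence measured ADP made over a 4 h room-temperature reaction of ATP plus fructose, started after 30 min compound–enzyme pre-incubation. Buffer: 50 mM Hepes pH 7.4, 140 mM KCl, 5 mM MgCl2, 0.01% Triton-X. Enzyme was His-tagged, BL21 (DE3)-expressed, Ni-NTA-purified; compounds in 1:3 DMSO dilution series.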
On the technique in general: ADP-Glo first removes unused ATP, then detects ADP through luciferase.

The target in the next assay is human KHK-A (Homo sapiens (Human), UniProt P50053). The assay is described as follows: KHK Biochemical Assay (IC50), ADP-Glo, KHK-A. The conditions noted are these: average of at least two separate assays. Put shortly: as §1

Read-outs that look alike come from different tables or passages of the source.

Sequence of KHK-C expressed in NRK-52E cells (P50053 whole entry): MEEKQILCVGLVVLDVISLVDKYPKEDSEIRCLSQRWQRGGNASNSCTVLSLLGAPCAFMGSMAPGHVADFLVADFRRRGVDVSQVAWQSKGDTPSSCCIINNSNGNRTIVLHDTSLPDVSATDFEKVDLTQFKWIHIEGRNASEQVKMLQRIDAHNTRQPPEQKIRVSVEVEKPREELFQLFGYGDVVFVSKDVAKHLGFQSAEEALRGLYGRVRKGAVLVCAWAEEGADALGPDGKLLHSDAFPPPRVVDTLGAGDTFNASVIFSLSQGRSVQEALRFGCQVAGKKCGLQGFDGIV
Sequence of human KHK-C (P50053 whole entry): as above
Sequence of human KHK-A (P50053 other isoform, or with tags, fused parts or gaps): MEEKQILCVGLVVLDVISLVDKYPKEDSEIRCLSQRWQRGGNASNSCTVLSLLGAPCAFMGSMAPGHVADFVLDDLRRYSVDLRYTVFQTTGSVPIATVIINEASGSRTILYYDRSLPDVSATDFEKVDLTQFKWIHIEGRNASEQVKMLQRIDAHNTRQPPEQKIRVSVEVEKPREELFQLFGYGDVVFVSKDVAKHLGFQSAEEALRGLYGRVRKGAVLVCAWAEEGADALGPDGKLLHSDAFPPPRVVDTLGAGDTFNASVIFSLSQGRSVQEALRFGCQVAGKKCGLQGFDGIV

As to `C[C@H]1CCN1c1nc2c(c(-c3ccc4[nH]c(=O)[nH]c(=O)c4c3)n1)CCC2` [Example 425, 6-[2-[(2S)-2-methylazetidin-1-yl]-6,7-dihydro-5H-cyclopenta[d]pyrimidin-4-yl]-1H-quinazoline-2,4-dione], the EC50 – broadly, the concentration at which the effect is half-maximal – in assay [1] turned out to be 122 nM. Besides, the half-maximal inhibitory concentration (IC50) (as a rule, the concentration at which inhibition is half-maximal) at human KHK-C amounted to 31.4 nM; against human KHK-A it was 21.7 nM.

Molecule `C[C@H]1CCN1c1nc2c(c(-c3ccc(C(O)C(F)F)cc3)n1)CCC2` (stereo partly drawn) [Example 256, 2,2-difluoro-1-[4-[2-[(2S)-2-methylazetidin-1-yl]-6,7-dihydro-5H-cyclopenta[d]pyrimidin-4-yl]phenyl]ethanol] showed a 50% effective concentration (EC50) in assay [1] of 161 nM. In addition, the figures for the IC50 at human KHK-C (ADP-Glo) and against human KHK-A (ADP-Glo) were 262 nM and 519 nM, respectively.

In the case of `C[C@H]1CCN1c1nc2c(c(-c3cc4ccccc4[nH]3)n1)CCC2` [Example 151, (S)-4-(1H-indol-2-yl)-2-(2-methylazetidin-1-yl)-6,7-dihydro-5H-cyclopenta[d]pyrimidine], the EC50 in assay [1] is 1360 nM. In addition, the results for the IC50 against human KHK-C (ADP-Glo) and against human KHK-A (ADP-Glo) were 3890 nM and 4980 nM, respectively.

Consider `C[C@@H]1CN(c2nc3c(c(-c4ccc(C(N)=O)cc4)n2)CCC3)[C@H]1C` [Example 106], for which the concentration giving a half-maximal response (EC50) in assay [1] (read-out: NRK CTG EC50, NRK-52E cells, fructose-mediated ATP-depletion, Cell-Titer Glo) came to 209 nM. The IC50 against human KHK-C (ADP-Glo) worked out at 126 nM; on human KHK-A (ADP-Glo) it was 148 nM.

In assay [1], `C[C@H]1CCN1c1nc2c(c(-c3ccc(C(C)(C)O)s3)n1)CCC2` [Example 376, 2-[5-[2-[(2S)-2-methylazetidin-1-yl]-6,7-dihydro-5H-cyclopenta[d]pyrimidin-4-yl]-2-thienyl]propan-2-ol] showed a half-maximal effective concentration (EC50) of 37.3 nM. Also, the IC50 against human KHK-C (ADP-Glo) is 27.9 nM; against human KHK-A (ADP-Glo), 52.3 nM.

`C[C@H]1CCN1c1nc2c(c(-c3ccc4[nH]c(C(N)=O)cc4c3)n1)CCC2` [Example 184, 5-[2-[(2S)-2-methylazetidin-1-yl]-6,7-dihydro-5H-cyclopenta[d]pyrimidin-4-yl]-1H-indole-2-carboxamide] gave an EC50 in assay [1] of 275 nM. The half-inhibitory concentration (IC50) against human KHK-C (ADP-Glo) is 210 nM; against human KHK-A (ADP-Glo) it was 152 nM.

Take `C[C@H]1CCN1c1nc2c(c(-c3ccc(C4(NC(=O)OC(C)(C)C)CCC4)cc3)n1)CCC2` [Example 311, (S)-tert-butyl (1-(4-(2-(2-methylazetidin-1-yl)-6,7-dihydro-5H-cyclopenta[d]pyrimidin-4-yl)phenyl)cyclobutyl)carbamate]: the midpoint of the response in assay [1], the EC50, lay at 915 nM. The 50% inhibitory concentration (IC50) against human KHK-C (ADP-Glo) and against human KHK-A (ADP-Glo) was more than 5000 nM throughout.

`C[C@H]1[C@H](O)CN1c1nc2c(c(-c3ccc4cnc(O)cc4c3)n1)CCC2` [Example 388, 6-[2-[(2S,3R)-3-hydroxy-2-methyl-azetidin-1-yl]-6,7-dihydro-5H-cyclopenta[d]pyrimidin-4-yl]isoquinolin-3-ol]: in assay [1], the midpoint of the response, the EC50, lay at 403 nM. Moreover, the figures for the half-inhibitory concentration (IC50) against human KHK-C (ADP-Glo) and on human KHK-A (ADP-Glo) were 81.3 nM and 87.7 nM, respectively.

`C[C@H]1[C@H](O)CN1c1nc(-c2ccc3c(c2)CC[C@@]32CCC(=O)N2)c2c(n1)C(F)(F)CC2` (single isomer, unassigned) [Example 637] yielded an EC50 in assay [1] of 161 nM. Moreover, the values for the IC50 at human KHK-C and against human KHK-A were 22.1 nM and 35.1 nM, respectively.

In turn, `C[C@H]1CCN1c1nc2c(c(-c3ccc(C45CC(C(N)=O)(C4)C5)cc3)n1)CCC2` [Example 250, 3-[4-[2-[(2S)-2-methylazetidin-1-yl]-6,7-dihydro-5H-cyclopenta[d]pyrimidin-4-yl]phenyl]bicyclo[1.1.1]pentane-1-carboxamide] showed an EC50 in assay [1] of 852 nM. In addition, the results for the half-maximal inhibitory concentration (IC50) at human KHK-C (ADP-Glo) and on human KHK-A (ADP-Glo) were 129 nM and 196 nM, respectively.

As for `C[C@H]1CCN1c1nc2c(c(-c3ccc4c(c3)CC(C(N)=O)C4)n1)CCC2` (stereo partly drawn) [Example 140, 5-(2-((S)-2-methylazetidin-1-yl)-6,7-dihydro-5H-cyclopenta[d]pyrimidin-4-yl)-2,3-dihydro-1H-indene-2-carboxamide], the response in assay [1] was half-maximal at 163 nM (EC50). Also, the values for the concentration for half-maximal inhibition (IC50) against human KHK-C (ADP-Glo) and against human KHK-A (ADP-Glo) were 52.8 nM and 28.1 nM, respectively.

As for `C[C@H]1CCN1c1nc2c(c(-c3ccc4c(c3)[C@]3(C[C@H]3C(N)=O)C(=O)N4)n1)CCC2` (mixture of isomers) [Example 412, rac-(1R,2R)-5′-(2-((S)-2-methylazetidin-1-yl)-6,7-dihydro-5H-cyclopenta[d]pyrimidin-4-yl)-2′-oxospiro[cyclopropane-1,3′-indoline]-2-carboxamide], in assay [1], the EC50 is 406 nM. Moreover, the IC50 was determined as 29.2 nM against human KHK-C and 57.3 nM at human KHK-A.

For the molecule `C[C@H]1CCN1c1nc2c(c(-c3ccc(C(N)=O)cc3)n1)CC2` [Example 124, (S)-4-(3-(2-methylazetidin-1-yl)-2,4-diazabicyclo[4.2.0]octa-1,3,5-trien-5-yl)benzamide], the response in assay [1] was half-maximal at 973 nM (EC50). For the same molecule, the IC50 is 328 nM on human KHK-C (ADP-Glo) and 535 nM at human KHK-A (ADP-Glo).

`C[C@H]1CCN1c1nc2c(c(-c3ccc(F)c(S(N)(=O)=O)c3)n1)CCC2` [Example 122, (S)-2-fluoro-5-(2-(2-methylazetidin-1-yl)-6,7-dihydro-5H-cyclopenta[d]pyrimidin-4-yl)benzenesulfonamide] gave a concentration giving a half-maximal response (EC50) in assay [1] of 51.8 nM. Moreover, the IC50 against human KHK-C (ADP-Glo) amounted to 41.8 nM; against human KHK-A (ADP-Glo) it was 44.5 nM.

`CC(=O)Nc1ccc(-c2nc(N3CC[C@@H]3C)nc3c2CCC3)cc1` [Example 355, N-[4-[2-[(2S)-2-methylazetidin-1-yl]-6,7-dihydro-5H-cyclopenta[d]pyrimidin-4-yl]phenyl]acetamide] registered an EC50 in assay [1] of 92.4 nM. The concentration for half-maximal inhibition (IC50) at human KHK-C (ADP-Glo) was 72.7 nM; on human KHK-A (ADP-Glo) it was 33.3 nM.

`NS(=O)(=O)c1cccc(-c2nc(N3CC[C@@H]3CO)nc3c2CCC3)c1` [Example 92, (R)-3-(2-(2-(hydroxymethyl)azetidin-1-yl)-6,7-dihydro-5H-cyclopenta[d]pyrimidin-4-yl)benzenesulfonamide] displayed an EC50 in assay [1] of 368 nM. Further, the values for the IC50 against human KHK-C (ADP-Glo) and against human KHK-A (ADP-Glo) were 93 nM and 82.3 nM, respectively.

With `C[C@H]1[C@H](O)CN1c1nc2c(c(-c3ccc4c(c3)CNC4=O)n1)CCC2` [Example 196, 5-[2-[(2S,3R)-3-hydroxy-2-methyl-azetidin-1-yl]-6,7-dihydro-5H-cyclopenta[d]pyrimidin-4-yl]isoindolin-1-one], the concentration giving a half-maximal response (EC50) in assay [1] came to 367 nM. Also, the values for the half-inhibitory concentration (IC50) on human KHK-C (ADP-Glo) and against human KHK-A (ADP-Glo) were 86.7 nM and 136 nM, respectively.

With `CC(=O)N1C[C@H](C(=O)O)[C@@H](c2cccc(-c3nc(N4CC[C@@H]4C)nc4c3CCC4)c2)C1` (mixture of isomers) [Example 145, (3R,4S)-1-acetyl-4-(3-(2-((S)-2-methylazetidin-1-yl)-6,7-dihydro-5H-cyclopenta[d]pyrimidin-4-yl)phenyl)pyrrolidine-3-carboxylic acid], the concentration for a half-maximal effect (EC50) in assay [1] was more than 5000 nM. The IC50 at human KHK-C (ADP-Glo) stood at 125 nM; against human KHK-A (ADP-Glo), 83.7 nM.

The molecule `C[C@H]1CCN1c1nc2c(c(-c3ccc(C#N)c(F)c3)n1)CCC2` [Example 313, (S)-2-fluoro-4-(2-(2-methylazetidin-1-yl)-6,7-dihydro-5H-cyclopenta[d]pyrimidin-4-yl)benzonitrile] had a concentration for a half-maximal effect (EC50) in assay [1] of 2080 nM. Also, the IC50 on human KHK-C (ADP-Glo) was 1150 nM; against human KHK-A (ADP-Glo) it was 1030 nM.

Regarding `C[C@H]1CCN1c1nc2c(c(-c3ccc(C(N)=O)c(Cl)c3)n1)CCC2` [Example 303, (S)-2-chloro-4-(2-(2-methylazetidin-1-yl)-6,7-dihydro-5H-cyclopenta[d]pyrimidin-4-yl)benzamide], the EC50 in assay [1] turned out to be 91.5 nM. Further, the IC50 was found to be 49.7 nM against human KHK-C (ADP-Glo) and 29.7 nM against human KHK-A (ADP-Glo).

Consider `C[C@H]1CCN1c1nc2c(c(-c3ccc4c(c3)CN(C)C4=O)n1)CCC2` [Example 186, 2-methyl-5-[2-[(2S)-2-methylazetidin-1-yl]-6,7-dihydro-5H-cyclopenta[d]pyrimidin-4-yl]isoindolin-1-one], for which the midpoint of the response in assay [1], the EC50, lay at 143 nM. Further, the half-inhibitory concentration (IC50) on human KHK-C (ADP-Glo) turned out to be 66.9 nM; at human KHK-A (ADP-Glo) it was 78.2 nM.

In turn, `C[C@H]1[C@H](F)CN1c1nc2c(c(-c3ccc(C(N)=O)s3)n1)CCC2` [Example 58] registered an EC50 in assay [1] of 9.5 nM. Moreover, the half-inhibitory concentration (IC50) was found to be 7.9 nM at human KHK-C (ADP-Glo) and 5.8 nM at human KHK-A (ADP-Glo).

In turn, `CO[C@@H]1CN(c2nc3c(c(-c4ccc(C(N)=O)cc4)n2)CCC3)[C@H]1C` [Example 235, 4-(2-((2S,3R)-3-methoxy-2-methylazetidin-1-yl)-6,7-dihydro-5H-cyclopenta[d]pyrimidin-4-yl)benzamide] returned a 50% effective concentration (EC50) in assay [1] of more than 5000 nM. In addition, the 50% inhibitory concentration (IC50) on human KHK-C (ADP-Glo) and against human KHK-A (ADP-Glo) was more than 5000 nM throughout.

In assay [1], `C[C@H]1[C@H](O)CN1c1nc2c(c(-c3cccc(C4CC4C(=O)O)c3)n1)CCC2` (stereo partly drawn) [Example 47, 2-(3-(2-((2S,3R)-3-hydroxy-2-methylazetidin-1-yl)-6,7-dihydro-5H-cyclopenta[d]pyrimidin-4-yl)phenyl)cyclopropane-1-carboxylic acid] yielded a concentration for a half-maximal effect (EC50) of 2370 nM. Further, the 50% inhibitory concentration (IC50) worked out at 15.2 nM against human KHK-C (ADP-Glo) and 29.4 nM against human KHK-A (ADP-Glo).

For `C[C@H]1CCN1c1nc2c(c(-c3cccc(NS(=O)(=O)CCC(=O)O)c3)n1)CCC2` [Example 83, (S)-3-(N-(3-(2-(2-methylazetidin-1-yl)-6,7-dihydro-5H-cyclopenta[d]pyrimidin-4-yl)phenyl)sulfamoyl)propanoic acid], the 50% effective concentration (EC50) in assay [1] was more than 5000 nM. Further, the figures for the concentration for half-maximal inhibition (IC50) against human KHK-C (ADP-Glo) and on human KHK-A (ADP-Glo) were 10.3 nM and 32.5 nM, respectively.

In turn, `C[C@H]1CCN1c1nc2c(c(-c3ccc(C(O)C4(C#N)CC4)cc3)n1)CCC2` (stereo partly drawn) [Example 255, 1-[hydroxy-[4-[2-[(2S)-2-methylazetidin-1-yl]-6,7-dihydro-5H-cyclopenta[d]pyrimidin-4-yl]phenyl]methyl]cyclopropanecarbonitrile] had an EC50 in assay [1] of 70.7 nM. Besides, the IC50 stood at 65.9 nM against human KHK-C (ADP-Glo) and 49.8 nM against human KHK-A (ADP-Glo).
